# From US5994340A, “Azetidinone derivatives as β-lactamase inhibitors” (SynPhar Laboratories, Inc., priority 1997, dated 1999)
# Counter-ions that a name gives are not always drawn.
# Tests used:
# [1] = target: cephalosporinase from P. aeruginosa (Pseudomonas aeruginosa, UniProt P24735); assay: β-Lactamase inhibitory activity, spectrophotometric rate assay at 490 nm with nitrocefin as substrate; assay type: biochemical
# Procedure: The inhibitory activities of present compounds (β-lactamase inhibitors) against cephalosporinase from P. aeruginosa was measured by spectrophotometric rate assay using 490 nm and using nitrocefin as a substrate (J. Antimicrob. Chemother., vol. 28, pp 775-776, 1991).
# β-lactamase = details: suggested by several publications; cited from earlier work
# E. cloacae P 99 = assay: microbe, parasite or virus in culture; assay type: cell-based; details: Enterobacter cloacae, P99, 18 h, read-out: MIC of ceftazidime alone
# Procedure: (§1) After incubation in Mueller-Hinton Broth (Difco) at 37° C. for 18 h, the bacterial suspension was diluted and about 10^5 CFU/ml was applied to the drug-containing Mueller-Hinton Broth in each well of 96 well plate. The MICs were recorded after 18 h of incubation at 37° C. on the lowest combinations of drug that inhibited visible growth of bacteria.
# P. aeruginosa AU-8 = assay: MIC of ceftazidime, microbroth dilution; assay type: cell-based; details: Pseudomonas aeruginosa, AU8, 18 h, read-out: MIC of ceftazidime alone
# Procedure: (§2) […]. After incubation in Mueller-Hinton Broth (Difco) at 37° C. for 18 h, the bacterial suspension was diluted and about 10^5 CFU/ml was applied to the drug-containing Mueller-Hinton Broth in each well of 96 well plate. The MICs were recorded after 18 h of incubation at 37° C. on the lowest combinations of drug that inhibited visible growth of bacteria.
# P. aeruginosa 46012 = assay: MIC of ceftazidime, microbroth dilution; assay type: cell-based; details: Pseudomonas aeruginosa, 46012, 18 h, read-out: MIC of ceftazidime alone
# Procedure: as §2
# E. aerogenes S-95 = assay: MIC of ceftazidime, microbroth dilution; assay type: cell-based; details: Klebsiella aerogenes, S95, 18 h, read-out: MIC of ceftazidime alone
# Procedure: as §2
# C. freundii 44032 = assay: MIC of ceftazidime, microbroth dilution; assay type: cell-based; details: Citrobacter freundii, 44032, 18 h, read-out: MIC of ceftazidime alone
# Procedure: as §2
# E. aerogenes 41006 = assay: MIC of ceftazidime, microbroth dilution; assay type: cell-based; details: Klebsiella aerogenes, 41006, 18 h, read-out: MIC of ceftazidime alone
# Procedure: as §2
# P. aeruginosa L46004 = assay: MIC of ceftazidime, microbroth dilution; assay type: cell-based; details: Pseudomonas aeruginosa, L46004, 18 h, read-out: MIC of ceftazidime alone
# Procedure: as §2
# C. freundii CT-76 = assay: MIC of ceftazidime, microbroth dilution; assay type: cell-based; details: Citrobacter freundii, CT76, 18 h, read-out: MIC of ceftazidime alone
# Procedure: as §2
# P. aeruginosa AU-1 = assay: MIC of ceftazidime, microbroth dilution; assay type: cell-based; details: Pseudomonas aeruginosa, AU1, 18 h, read-out: MIC of ceftazidime alone
# Procedure: as §2
# M. morganii 36030 = assay: MIC of ceftazidime, microbroth dilution; assay type: cell-based; details: Morganella morganii, 36030, 18 h, read-out: MIC of ceftazidime alone
# Procedure: as §2
# M. morganii 36014 = assay: MIC of ceftazidime, microbroth dilution; assay type: cell-based; details: Morganella morganii, 36014, 18 h, read-out: MIC of ceftazidime alone
# Procedure: as §2
# P. aeruginosa M 1405 = assay: MIC of ceftazidime, microbroth dilution; assay type: cell-based; details: Pseudomonas aeruginosa, M1405, 18 h, read-out: MIC of ceftazidime alone
# Procedure: as §2
# [2] = system: P. aeruginosa sp 2439 Wt.; assay: MIC of ceftazidime, microbroth dilution; assay type: cell-based; details: Pseudomonas aeruginosa, SP2439WT.; ceftazidime alone, 18 h
# Procedure: as §1, with “The MICs of the antibiotics (e.g., ceftazidime) alone, the MICs of ceftazidime in combination with reference compounds particularly […] (Ref. compd. I) and the MICs of the β-lactamase inhibitors (10 μg/ml) of the present invention in combination with ceftazidime were determined with the same β-lactamase producing bacteria. After” for “After”
# P. aeruginosa CT-144 = assay: MIC of ceftazidime, microbroth dilution; assay type: cell-based; details: Pseudomonas aeruginosa, CT144; ceftazidime alone, 18 h
# Procedure: as §1, with “The MICs of the antibiotics (e.g., ceftazidime) alone, the MICs of ceftazidime in combination with reference compounds particularly […] (Ref. compd. I) and the MICs of the β-lactamase inhibitors (10 μg/ml) of the present invention in combination with ceftazidime were determined with the same β-lactamase producing bacteria. After” for “After”
# M. morganii 36010 = assay: MIC of ceftazidime, microbroth dilution; assay type: cell-based; details: Morganella morganii, ceftazidime alone, 18 h
# Procedure: as §1, with “The MICs of the antibiotics (e.g., ceftazidime) alone, the MICs of ceftazidime in combination with reference compounds particularly […] (Ref. compd. I) and the MICs of the β-lactamase inhibitors (10 μg/ml) of the present invention in combination with ceftazidime were determined with the same β-lactamase producing bacteria. After” for “After”
# P. aeruginosa CT-137 = assay: MIC of ceftazidime, microbroth dilution; assay type: cell-based; details: Pseudomonas aeruginosa, CT137; ceftazidime alone, 18 h
# Procedure: as §1, with “The MICs of the antibiotics (e.g., ceftazidime) alone, the MICs of ceftazidime in combination with reference compounds particularly […] (Ref. compd. I) and the MICs of the β-lactamase inhibitors (10 μg/ml) of the present invention in combination with ceftazidime were determined with the same β-lactamase producing bacteria. After” for “After”
# P. aeruginosa AU-10 = assay: MIC of ceftazidime, microbroth dilution; assay type: cell-based; details: Pseudomonas aeruginosa, AU10; ceftazidime alone, 18 h
# Procedure: as §1, with “The MICs of the antibiotics (e.g., ceftazidime) alone, the MICs of ceftazidime in combination with reference compounds particularly […] (Ref. compd. I) and the MICs of the β-lactamase inhibitors (10 μg/ml) of the present invention in combination with ceftazidime were determined with the same β-lactamase producing bacteria. After” for “After”
# P. aeruginosa 46220 DR-2 = assay: MIC of ceftazidime, microbroth dilution; assay type: cell-based; details: Pseudomonas aeruginosa, 46220DR2; ceftazidime alone, 18 h
# Procedure: as §1, with “The MICs of the antibiotics (e.g., ceftazidime) alone, the MICs of ceftazidime in combination with reference compounds particularly […] (Ref. compd. I) and the MICs of the β-lactamase inhibitors (10 μg/ml) of the present invention in combination with ceftazidime were determined with the same β-lactamase producing bacteria. After” for “After”
# P. aeruginosa M2297 = assay: MIC of ceftazidime, microbroth dilution; assay type: cell-based; details: Pseudomonas aeruginosa, ceftazidime alone, 18 h
# Procedure: as §1, with “The MICs of the antibiotics (e.g., ceftazidime) alone, the MICs of ceftazidime in combination with reference compounds particularly […] (Ref. compd. I) and the MICs of the β-lactamase inhibitors (10 μg/ml) of the present invention in combination with ceftazidime were determined with the same β-lactamase producing bacteria. After” for “After”
# P. aeruginosa 46017 = assay: MIC of ceftazidime, microbroth dilution; assay type: cell-based; details: Pseudomonas aeruginosa, ceftazidime alone, 18 h
# Procedure: as §1, with “The MICs of the antibiotics (e.g., ceftazidime) alone, the MICs of ceftazidime in combination with reference compounds particularly […] (Ref. compd. I) and the MICs of the β-lactamase inhibitors (10 μg/ml) of the present invention in combination with ceftazidime were determined with the same β-lactamase producing bacteria. After” for “After”
# P. aeruginosa CT-122 = assay: MIC of ceftazidime, microbroth dilution; assay type: cell-based; details: Pseudomonas aeruginosa, CT122; ceftazidime alone, 18 h
# Procedure: as §1, with “The MICs of the antibiotics (e.g., ceftazidime) alone, the MICs of ceftazidime in combination with reference compounds particularly […] (Ref. compd. I) and the MICs of the β-lactamase inhibitors (10 μg/ml) of the present invention in combination with ceftazidime were determined with the same β-lactamase producing bacteria. After” for “After”
# P. aeruginosa AU-5 = assay: MIC of ceftazidime, microbroth dilution; assay type: cell-based; details: Pseudomonas aeruginosa, AU5; ceftazidime alone, 18 h
# Procedure: as §1, with “The MICs of the antibiotics (e.g., ceftazidime) alone, the MICs of ceftazidime in combination with reference compounds particularly […] (Ref. compd. I) and the MICs of the β-lactamase inhibitors (10 μg/ml) of the present invention in combination with ceftazidime were determined with the same β-lactamase producing bacteria. After” for “After”
# [3] = system: P. aeruginosa PAO 303 carb-4; assay: microbe, parasite or virus in culture; assay type: cell-based; details: Pseudomonas aeruginosa, PAO303CARB4, 18 h, read-out: MIC of ceftazidime alone
# Procedure: as §2
# [4] = system: P. aeruginosa 46220 DR-2-1; assay: microbe, parasite or virus in culture; assay type: cell-based; details: Pseudomonas aeruginosa, 46220DR21, 18 h, read-out: MIC of ceftazidime alone
# Procedure: as §2
# E. cloacae MNH-2 = assay: MIC of ceftazidime, microbroth dilution; assay type: cell-based; details: Enterobacter cloacae, MNH2, 18 h, read-out: MIC of ceftazidime alone
# Procedure: as §1
# E. cloacae 40054 = assay: MIC of ceftazidime, microbroth dilution; assay type: cell-based; details: Enterobacter cloacae, 40054, 18 h, read-out: MIC of ceftazidime alone
# Procedure: as §1
# Sequence of cephalosporinase from P. aeruginosa (P24735 27-397): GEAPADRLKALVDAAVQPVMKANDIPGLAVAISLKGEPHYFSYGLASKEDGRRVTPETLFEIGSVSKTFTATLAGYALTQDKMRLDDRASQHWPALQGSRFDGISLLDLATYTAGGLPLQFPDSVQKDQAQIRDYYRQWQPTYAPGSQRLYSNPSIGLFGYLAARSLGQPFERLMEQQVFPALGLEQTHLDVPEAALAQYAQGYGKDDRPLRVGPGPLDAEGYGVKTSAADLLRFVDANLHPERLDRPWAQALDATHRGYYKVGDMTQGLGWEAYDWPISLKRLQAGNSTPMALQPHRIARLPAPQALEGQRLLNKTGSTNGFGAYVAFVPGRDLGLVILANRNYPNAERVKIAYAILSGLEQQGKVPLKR
smiles,measurement,setting,value
C[C@H]1[C@H](NC(=O)/C(=N/OCCN)c2csc(N)n2)C(=O)N1S(=O)(=O)O [Reference Compound II],IC50,[1],800 nM
C[C@H]1[C@H](NC(=O)/C(=N/OC[C@H](N)CCN)c2cccs2)C(=O)N1S(=O)(=O)O [Compound 6],IC50,[1],100 nM
"CC(N)CO/N=C(/C(=O)N[C@@H]1C(=O)N(S(=O)(=O)O)[C@H]1C)c1cccs1 (stereo partly drawn) [Compound 10, (3S)-trans-3-[(E)-2-(2-Thienyl-2-{(2-amino)-prop-1-oxyimino}acetamido]-4-methyl-2-oxoazetidine-1-sulfonic acid, inner salt]",IC50,[1],80 nM
"C[C@H]1[C@H](NC(=O)/C(=N/OCC(N)CO)c2cccs2)C(=O)N1S(=O)(=O)O (stereo partly drawn) [Compound 9, (3S)-trans-3-[(E)-2-(2-Thienyl)-2-{1-hydroxy-2-amino-prop-3-oxyimino}acetamido]-4-methyl-2-oxoazetidine-1-sulfonic acid, inner salt]",IC50,[1],80 nM
C[C@H]1[C@H](NC(=O)/C(=N/OC(CN)CO)c2cccs2)C(=O)N1S(=O)(=O)O (some centres unmarked) [Compound 8],IC50,[1],300 nM
"C[C@H]1[C@H](NC(=O)/C(=N/OC(CN)CN)c2cccs2)C(=O)N1S(=O)(=O)O [Compound 3, (3S)-trans-3-[(E)-2-(2-Thienyl)-2-{1,3-diamino-prop-2-oxyimino}acetamido]-4-methyl-2-oxoazetidine-1-sulfonic acid, triflate salt]",IC50,[1],400 nM
"C[C@H]1[C@H](NC(=O)/C(=N\OC(C)(C)C(=O)O)c2csc(N)n2)C(=O)N1S(=O)(=O)O [Reference Compound I, Aztreonam]",IC50,[1],130 nM
same,β-lactamase inhibitory properties,β-lactamase,possesses β-lactamase inhibitory properties
C[C@H]1[C@H](NC(=O)/C(=N/OCCCN)c2cccs2)C(=O)N1S(=O)(=O)O [Compound 2],IC50,[1],20 nM
C[C@H]1[C@H](NC(=O)/C(=N/OCCN)c2cccs2)C(=O)N1S(=O)(=O)O [Compound 1],IC50,[1],20 nM
C[C@H]1[C@H](NC(=O)/C(=N/OC[C@@H](N)CCN)c2cccs2)C(=O)N1S(=O)(=O)O [Compound 5],IC50,[1],100 nM
C[C@H]1[C@H](NC(=O)/C(=N/OC(CN)CNC(=N)N)c2cccs2)C(=O)N1S(=O)(=O)O (some centres unmarked) [Compound 12],IC50,[1],1090 nM
C[C@H]1[C@H](NC(=O)/C(=N/OCC(N)CN)c2cccs2)C(=O)N1S(=O)(=O)O (some centres unmarked) [Compound 4],IC50,[1],65 nM
CC(C)(O/N=C(\C(=O)N[C@@H]1C(=O)N2C(C(=O)[O-])=C(C[n+]3ccccc3)CS[C@H]12)c1csc(N)n1)C(=O)O [ceftazidime],MIC,E. cloacae P 99,> 32 µg/mL
same,MIC,P. aeruginosa AU-8,> 32 µg/mL
same,MIC,P. aeruginosa 46012,> 32 µg/mL
same,MIC,E. aerogenes S-95,> 32 µg/mL
same,MIC,C. freundii 44032,> 32 µg/mL
same,MIC,E. aerogenes 41006,> 32 µg/mL
same,MIC,P. aeruginosa L46004,> 32 µg/mL
same,MIC,C. freundii CT-76,> 32 µg/mL
same,MIC,P. aeruginosa AU-1,> 32 µg/mL
same,MIC,M. morganii 36030,> 32 µg/mL
same,MIC,M. morganii 36014,> 32 µg/mL
same,MIC,P. aeruginosa M 1405,> 32 µg/mL
same,MIC,[2],> 32 µg/mL
same,MIC,P. aeruginosa CT-144,32 µg/mL
same,MIC,M. morganii 36010,> 32 µg/mL
same,MIC,P. aeruginosa CT-137,8 µg/mL
same,MIC,P. aeruginosa AU-10,> 32 µg/mL
same,MIC,P. aeruginosa 46220 DR-2,16 µg/mL
same,MIC,P. aeruginosa M2297,> 32 µg/mL
same,MIC,P. aeruginosa 46017,> 32 µg/mL
same,MIC,P. aeruginosa CT-122,16 µg/mL
same,MIC,P. aeruginosa AU-5,> 32 µg/mL
same,MIC,[3],32 µg/mL
same,MIC,[4],> 32 µg/mL
same,MIC,E. cloacae MNH-2,> 32 µg/mL
same,MIC,E. cloacae 40054,> 32 µg/mL
CC(CN)O/N=C(/C(=O)N[C@@H]1C(=O)N(S(=O)(=O)O)[C@H]1C)c1cccs1 (some centres unmarked) [Compound 11],IC50,[1],200 nM
C[C@H]1[C@H](NC(=O)/C(=N/OCCNCCN)c2cccs2)C(=O)N1S(=O)(=O)O [Compound 7],IC50,[1],80 nM
